From article PMC11555678, “Improved Broad Spectrum Antifungal Drug Synergies with Cryptomycin, a Cdc50-Inspired Antifungal Peptide” (ACS Infectious Diseases, 2024)
Read-outs that look alike come from different tables or passages of the source.

Columns and labels:
C. albicans SC5413 [1] = format: cell-based, Candida albicans; conditions: RPMI1640, 37 °C, 48 h; for MIC of antifungal in combination with KKOO: azole MICs unclear (intermediate phenotype); for MIC of antifungal in combination with KKOO-NH2: azole MICs could not be determined (intermediate phenotype)
Procedure: (§1) All microdilution assays with fungi were carried out in accordance with CLSI protocols from M27 for yeasts and M38 for filamentous fungi, respectively, unless otherwise specified.[64],[65] Briefly, 96-well plates were charged with RPMI1640 media, with operating volume in the first column, 200 μL, and half operating volume, 100 μL, in the remaining wells. Drug stock solution in DMSO was aliquoted into the first well in each row. Half of the volume in the dosed well was serially diluted 2-fold until column 11. Column 11 was used as the negative growth control, and column 12 was used as the positive growth control. ON yeast cultures in YPD were washed twice in DD-H2O, resuspended in PBS, and adjusted to 5000 cfu/mL in RPMI. The 96-well plate was inoculated with 100 μL aliquots of cell suspension per well. Plates were incubated at 37 °C for 2 days.
(§2) To assess drug synergy, the initial media charged to the plate contained the peptide at twice the final operating concentration; the remaining processing steps were identical to the MIC experiment. Upon addition of 100 μL of inoculant, the final operating concentration was achieved. Control MIC plates were prepared alongside drug synergy plates to account for the day-to-day variability in any individual MIC. FIC index is computed using eq 1. All MIC assays and drug synergy assays were completed with two technical replicates per 96-well plate and a minimum of two biological replicates per drug combination. If a difference in MIC between the two technical replicates on the plate were observed, only the higher concentration was reported as the MIC to reduce the possibility of type 1 error (false positive) [drawing 1] 1

Cg FKS2 S663P = assay: Drug synergy (MIC in peptide-supplemented media); format: cell-based, Candida glabrata; conditions: RPMI1640, 37 °C, 48 h
Procedure: as §1, §2

Cg FKS1 S629P = assay: Drug synergy (MIC in peptide-supplemented media); format: cell-based, Candida glabrata; conditions: RPMI1640, 37 °C, 48 h
Procedure: as §1, §2

C. glabrata 2001 = format: cell-based, Candida glabrata; conditions: RPMI1640, 37 °C, 48 h
Procedure: as §1, §2

A. fumigatus AF293 = assay: Drug synergy (MIC in peptide-supplemented media); format: cell-based, Aspergillus fumigatus; conditions: RPMI1640, 37 °C, 48 h; for MIC of antifungal in combination with KKOO-NH2: MIC = well with <20% growth
Procedure: as §1, §2

C. albicans SC5413 [2] = assay: microbe, parasite or virus in culture; format: cell-based, Candida albicans; conditions: Candida albicans, SC5413; compound alone; RPMI1640, 37 °C, 48 h; read-out: MIC
In short: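 Two-fold dilution series prepared from DMSO stocks in RPMI1640 were inoculated with 5000 cfu/mL yeast per CLSI M27, then kept at 37 °C for 2 days.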

C. neoformans H99 = format: cell-based, Cryptococcus neoformans; conditions: RPMI1640, 37 °C; for MIC of antifungal in combination with KKOO / MIC of antifungal in combination with KKOO-NH2: 48 h

OC(Cn1cncn1)(Cn1cncn1)c1ccc(F)cc1F [FLC, fluconazole]
0.125 µg/mL: MIC of antifungal in combination with KKOO (C. albicans SC5413 [1]; +8 μg/mL KKOO)
8 µg/mL: MIC of antifungal in combination with KKOO (C. glabrata 2001; +0 μg/mL KKOO (control)) | MIC of antifungal in combination with KKOO-NH2 (C. glabrata 2001; +0 μg/mL KKOO-NH2 (control)) | MIC of antifungal in combination with KKOO-NH2 (C. glabrata 2001; +1 μg/mL KKOO-NH2) | MIC of antifungal in combination with KKOO (C. glabrata 2001; +1 μg/mL KKOO) | MIC of antifungal in combination with KKOO-NH2 (C. glabrata 2001; +2 μg/mL KKOO-NH2) | MIC of antifungal in combination with KKOO (C. glabrata 2001; +2 μg/mL KKOO) | MIC of antifungal in combination with KKOO-NH2 (C. glabrata 2001; +4 μg/mL KKOO-NH2)
> 16 µg/mL: MIC of antifungal in combination with KKOO (C. albicans SC5413 [1]; +0 μg/mL KKOO (control)) | MIC of antifungal in combination with KKOO (C. albicans SC5413 [1]; +1 μg/mL KKOO) | MIC of antifungal in combination with KKOO (C. albicans SC5413 [1]; +2 μg/mL KKOO) | MIC of antifungal in combination with KKOO (C. albicans SC5413 [1]; +4 μg/mL KKOO) | MIC (C. albicans SC5413 [2])
> 128 µg/mL: MIC of antifungal in combination with KKOO (A. fumigatus AF293; +0 μg/mL KKOO (control), CAS: paradoxical growth, MIC = <20% growth) | MIC of antifungal in combination with KKOO (A. fumigatus AF293; +1 μg/mL KKOO, CAS: paradoxical growth, MIC = <20% growth) | MIC of antifungal in combination with KKOO (A. fumigatus AF293; +2 μg/mL KKOO, CAS: paradoxical growth, MIC = <20% growth) | MIC of antifungal in combination with KKOO (A. fumigatus AF293; +4 μg/mL KKOO, CAS: paradoxical growth, MIC = <20% growth) | MIC of antifungal in combination with KKOO (A. fumigatus AF293; +8 μg/mL KKOO)
>16 µg/mL: MIC of antifungal in combination with KKOO-NH2 (C. albicans SC5413 [1]; +0 μg/mL KKOO-NH2 (control)) | MIC of antifungal in combination with KKOO-NH2 (C. albicans SC5413 [1]; +1 μg/mL KKOO-NH2) | MIC of antifungal in combination with KKOO-NH2 (C. albicans SC5413 [1]; +2 μg/mL KKOO-NH2) | MIC of antifungal in combination with KKOO-NH2 (C. albicans SC5413 [1]; +4 μg/mL KKOO-NH2)
0.5 µg/mL: MIC of antifungal in combination with KKOO (Cg FKS2 S663P; +0 μg/mL KKOO (control)) | MIC of antifungal in combination with KKOO-NH2 (Cg FKS2 S663P; +0 μg/mL KKOO-NH2 (control)) | MIC of antifungal in combination with KKOO-NH2 (Cg FKS2 S663P; +1 μg/mL KKOO-NH2) | MIC of antifungal in combination with KKOO (Cg FKS2 S663P; +1 μg/mL KKOO) | MIC of antifungal in combination with KKOO-NH2 (Cg FKS2 S663P; +2 μg/mL KKOO-NH2) | MIC of antifungal in combination with KKOO (Cg FKS2 S663P; +2 μg/mL KKOO) | MIC of antifungal in combination with KKOO-NH2 (Cg FKS2 S663P; +4 μg/mL KKOO-NH2) | MIC of antifungal in combination with KKOO (Cg FKS2 S663P; +4 μg/mL KKOO)
1 µg/mL: MIC of antifungal in combination with KKOO-NH2 (Cg FKS1 S629P; +4 μg/mL KKOO-NH2) | MIC of antifungal in combination with KKOO-NH2 (C. neoformans H99; +4 μg/mL KKOO-NH2) | MIC of antifungal in combination with KKOO (C. neoformans H99; +8 μg/mL KKOO)
4 µg/mL: MIC of antifungal in combination with KKOO (C. glabrata 2001; +4 μg/mL KKOO) | MIC of antifungal in combination with KKOO (C. glabrata 2001; +8 μg/mL KKOO)
>128 µg/mL: MIC of antifungal in combination with KKOO-NH2 (A. fumigatus AF293; +0 μg/mL KKOO-NH2 (control), CAS: paradoxical growth) | MIC of antifungal in combination with KKOO-NH2 (A. fumigatus AF293; +1 μg/mL KKOO-NH2, CAS: paradoxical growth) | MIC of antifungal in combination with KKOO-NH2 (A. fumigatus AF293; +2 μg/mL KKOO-NH2, CAS: paradoxical growth) | MIC of antifungal in combination with KKOO-NH2 (A. fumigatus AF293; +4 μg/mL KKOO-NH2, CAS: paradoxical growth) | MIC of antifungal in combination with KKOO-NH2 (A. fumigatus AF293; +8 μg/mL KKOO-NH2, CAS: paradoxical growth)
2 µg/mL: MIC of antifungal in combination with KKOO (Cg FKS1 S629P; +0 μg/mL KKOO (control)) | MIC of antifungal in combination with KKOO-NH2 (Cg FKS1 S629P; +0 μg/mL KKOO-NH2 (control)) | MIC of antifungal in combination with KKOO-NH2 (Cg FKS1 S629P; +1 μg/mL KKOO-NH2) | MIC of antifungal in combination with KKOO (Cg FKS1 S629P; +1 μg/mL KKOO) | MIC of antifungal in combination with KKOO-NH2 (Cg FKS1 S629P; +2 μg/mL KKOO-NH2) | MIC of antifungal in combination with KKOO (Cg FKS1 S629P; +2 μg/mL KKOO) | MIC of antifungal in combination with KKOO (Cg FKS1 S629P; +4 μg/mL KKOO) | MIC of antifungal in combination with (FITC)KKOO (C. neoformans H99; +0 μg/mL (FITC)KKOO) | MIC of antifungal in combination with KKOO (C. neoformans H99; +0 μg/mL KKOO (control)) | MIC of antifungal in combination with KKOO-NH2 (C. neoformans H99; +0 μg/mL KKOO-NH2 (control)) | MIC of antifungal in combination with KKOO-NH2 (C. neoformans H99; +1 μg/mL KKOO-NH2) | MIC of antifungal in combination with KKOO (C. neoformans H99; +1 μg/mL KKOO) | MIC of antifungal in combination with KKOO-NH2 (C. neoformans H99; +2 μg/mL KKOO-NH2) | MIC of antifungal in combination with KKOO (C. neoformans H99; +2 μg/mL KKOO) | MIC of antifungal in combination with (FITC)KKOO (C. neoformans H99; +4 μg/mL (FITC)KKOO) | MIC of antifungal in combination with KKOO (C. neoformans H99; +4 μg/mL KKOO) | MIC of antifungal in combination with (FITC)KKOO (C. neoformans H99; +8 μg/mL (FITC)KKOO)
